Data from patent US4454120A, “Analgesic dipeptide amides and method of use and compositions thereof” (Sterling Drug Inc., priority 1982, dated 1984).

Columns and labels:
[1] = test system: guinea pig ileum longitudinal muscle; assay: Guinea pig ileum test (inhibition of electrically induced twitch); assay type: cell-based; conditions: ratio of IC50 of reference Met5-enkephalin (=100) to IC50 of test compound in the same preparation, averaged, usually N=4
Procedure: Adult male guinea pigs (Charles River, Hartley strain) weighing 300-500 g. are decapitated, and the terminal ileum is exposed by reflecting the overlying cecum, severed at the ileocecal juncture, and removed while cutting the mesenteric attachments to avoid excessive traction on the tissue. The ileum (about 30 cm. in length) is transferred to a beaker containing warm modified Krebs-Henseleit solution (118 mM sodium chloride, 4.75 mM potassium chloride, 2.54 mM calcium chloride, 1.19 mM potassium dihydrogen phosphate, 1.2 mM magnesium sulfate, 25 mM sodium bicarbonate, 11 mM glucose, 20 μM choline chloride and 0.125 μM pyrilamine maleate). The terminal (aboral) portion (about 10 cm. in length) is discarded, and segments (3-4 cm. in length) are cut from the remainder and gently slid onto a glass rod (5-6 mm. in diameter) and arranged so that the meseneteric attachment is in a straight line. A cotton swab moistened in the solution is then carefully used to separate the longitudinal muscle from the underlying circular muscle. The longitudinal muscle and adhering myenteric plexus is then gently removed from the remaining tissue with forceps.
Strips of this prepared longitudinal muscle are mounted in a double-jacketed organ bath (5 ml.) under tension (1.0 g.), connected to isometric transducers (Grass FT .03), bathed in the modified Krebs-Henseleit solution described above, aerated with oxygen-carbon dioxide (95:5) and maintained at 37° C.
Stimulators (Grass S-44) are set to deliver repetitive monophasic square wave field stimulation (supramaximal voltage, 0.10 Hz., 0.25 msec. duration) through platinum ring electrodes at the top and bottom of the bath. Regular contractions of the muscle, which result from electrically-induced liberation of acetylcholine from postganglionic parasympathetic nerves, are recorded on a polygraph (Grass model 5). Following tissue equilibration (45-60 min.) and repeated washing (every 10 min.) an aqueous solution of a reference or test compound is added to the bath in a microliter volume (1.25-250 μl) and reductions in muscle twitch height are recorded. More compound can be added […] first washing the preparation.
From the results a half-mazimal inhibitory concentration (IC50) value for the compound is computed by regression analysis of a linear plot of logarithm of concentration against percent of inhibition of twitch height (probits). The ratio of the IC50 value of a reference compound to that of a test compound tested in the same preparation is the molar potency ratio. Usually four preparations are tested simultaneously by the same person (N=4), and the resulting four molar potency ratios are averaged.
The following results were obtained using the examples as test compounds and Met^5 -enkephalin as the reference compound.

Male Swiss-Webster mice = assay: Mouse acetylcholine writhing test; assay type: in vivo; conditions: for ED50: Mus musculus, sc, subcutaneous, approximate values
Procedure: Male Swiss-Webster mice each weighing 18-24 g. are treated subcutaneously (10 ml./kg. injection volume) or orally with the test compound in an aqueous vehicle. Twenty minutes thereafter each mouse is injected intraperitoneally with acetylcholine (3.2 mg./kg.) in aqueous sodium chloride (0.9%). This dose of acetylcholine causes one or more characteristic writhes in the two minute period following injection in control mice which receive the aqueous vehicle not containing the test compound. […] Test compounds are screened at doses of 100 and 30 mg./kg. subcutaneously and 300 and 100 mg./kg. orally using 15 mice at each dose level. ED50 values for active compounds are estimated by probit analysis of quantal scores at four or more dose levels using 15 mice at each dose level.

opiate receptor = conditions: rat brain membranes, relative to morphine; cited from earlier work
rat = rat tail flick, relative to morphine, cited from earlier work
guinea pig ileum = conditions: cited from earlier work
mouse vas deferens = conditions: cited from earlier work

## Met^5 -enkephalin [reference compound]
[1]
  Average Molar Potency Ratio: 100

## CN[C@@H](Cc1ccc(O)cc1)C(=O)N[C@@H](CCSC)C(=O)NCCCc1ccccc1.Cl.O [Example 5, N-methyl-L-tyrosyl-N-(3-phenylpropyl)-L-methioninamide monohydrochloride hydrate (4:1)]
Male Swiss-Webster mice
  95% confidence limits of subcutaneous ED50: 5.0 to 12 mg/kg
Male Swiss-Webster mice; acetylcholine 3.2 mg./kg. i.p. 20 min after the compound, probit analysis
  subcutaneous ED50: 8.5 mg/kg
[1]
  Average Molar Potency Ratio: 180

## L-tyrosyl-N-(3-phenylpropyl)-D-methioninamide S-oxide monohydrochloride sesquihydrate [Example 2]
[1]
  Average Molar Potency Ratio: 1180

## C[C@@H](NC(=O)[C@@H](N)Cc1ccc(O)cc1)C(N)=O [H-Tyr-D-Ala-NH2]
Opiate receptor
  times less affinity than morphine: 830 times
rat; intravenous
  times less potent than morphine, intravenously: greater than 10 times
rat; intraventricular
  times less potent than morphine, intraventricularly: 200 times

## CSCC[C@H](C(=O)NCCCc1ccccc1)N(C)C(=O)[C@@H](N)Cc1ccc(O)cc1.Cl [Example 7, L-tyrosyl-N^2-methyl-N-(3-phenylpropyl)-D-methioninamide monohydrochloride]
[1]
  Average Molar Potency Ratio: 260

## Cl.NC(=O)CC[C@@H](NC(=O)[C@@H](N)Cc1ccc(O)cc1)C(=O)NCCCc1ccccc1.O [Example 9, L-tyrosyl-N^1-(3-phenylpropyl)-D-glutamamide monohydrochloride hydrate (4:3)]
[1]
  Average Molar Potency Ratio: 47

## CSCC[C@@H](NC(=O)[C@@H](N)Cc1ccc(O)cc1)C(=O)NCCCc1ccccc1.Cl.O [Example 1, L-tyrosyl-N-(3-phenylpropyl)-D-methioninamide monohydrochloride monohydrate]
Male Swiss-Webster mice
  ED50: > 30 mg/kg
[1]
  Average Molar Potency Ratio: 279

## C[C@@H](NC(=O)[C@@H](N)Cc1ccc(O)cc1)C(=O)NCCNCCc1ccccc1 [HTyrD-AlaNH(CH2)2 NH(CH2)2 Phenyl]
Guinea pig ileum
  potency relative to Met-enkephalin: < 1%
Mouse vas deferens
  potency relative to Met-enkephalin: < 1%

## CN(C(=O)[C@@H](N)Cc1ccc(O)cc1)[C@H](CC[S+](C)[O-])C(=O)NCCCc1ccccc1.Cl.O (stereo partly drawn) [Example 8, L-tyrosyl-N^2-methyl-N-(3-phenylpropyl)-D-methioninamide S-oxide monhydrochloride monohydrate]
[1]
  Average Molar Potency Ratio: 650

## L-tyrosyl-N-(3-phenylpropyl)-D-serinamide hydrate (3:2) [Example 10]
[1]
  Average Molar Potency Ratio: 15

## CN(CCCc1ccccc1)C(=O)[C@@H](CC[S+](C)[O-])NC(=O)[C@@H](N)Cc1ccc(O)cc1.Cl.O (stereo partly drawn) [Example 4, L-tyrosyl-N-methyl-N-(3-phenylpropyl)-D-methioninamide S-oxide monohydrochloride monohydrate]
Male Swiss-Webster mice
  ED50: > 30 mg/kg
[1]
  Average Molar Potency Ratio: 5

## CSCC[C@@H](NC(=O)[C@@H](N)Cc1ccc(O)cc1)C(=O)N(C)CCCc1ccccc1.Cl [Example 3, L-tyrosyl-N-methyl-N-(3-phenylpropyl)-D-methioninamide monohydrochloride]
[1]
  Average Molar Potency Ratio: 19

## N-methyl-L-tyrosyl-N-(3-phenylpropyl)-D-methioninamide S-oxide monohydrochloride hemihydrate [Example 6]
[1]
  Average Molar Potency Ratio: 360
